Patent US11566007B2, “Ras inhibitors” (Revolution Medicines, Inc., priority 2019, dated 2023)
Where “and” joins values, the source holds several entries; their conditions need not be identical. Equal values may be shown once.

Legend:
NRAS Q61K = NRAS Q61K (Homo sapiens (Human), UniProt P01111+P62937, Q61K); assay: Ras-Raf (BRAF RBD) disruption / FRET / MOA assay, NRAS Q61K; type: biochemical; settings: NRAS Q61K; Ras-Raf disruption/FRET/MOA assay; read-out: IC50* NRAS Q61K FRET data
Method in brief: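 Compounds (30 μM top final, 10-point 3-fold dilutions) incubated 3 h at 25° C with nucleotide-loaded Ras, cyclophilin A and BRAF RBD. Detection with 10 nM anti-His Eu-W1024 and 50 nM anti-GST allophycocyanin over another 1.5 h. Lowered TR-FRET ratio relative to DMSO wells gives IC50.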

KRAS G12S = KRAS G12S (Homo sapiens (Human), UniProt P01116+P62937, G12S); assay: Ras-Raf (BRAF RBD) disruption / FRET / MOA assay, KRAS G12S; type: biochemical; settings: Ras-Raf disruption/FRET/MOA assay; class symbols; read-out: KRAS G12S FRET data IC50
Method in brief: (§1)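 Compound-driven ternary complex of nucleotide-loaded Ras with cyclophilin A, disrupting BRAF RBD binding. 10-point 3-fold dilution from 30 μM final, 3 h at 25° C, then anti-His Eu-W1024 (10 nM) and anti-GST allophycocyanin (50 nM) for 1.5 h. IC50 from TR-FRET ratio decrease versus DMSO.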

NRAS G12C = NRAS G12C (Homo sapiens (Human), UniProt P01111+P62937, G12C); assay: Ras-Raf (BRAF RBD) disruption / FRET / MOA assay, NRAS G12C; type: biochemical; settings: read-out: IC50* NRAS G12C FRET data
Method in brief: as §1

[1] = system: NCI-H358 cells (K-Ras G12C); assay: Potency assay: pERK in NCI-H358 cells; type: cell-based, human; settings: Homo sapiens, NCI-H358; H358 KRAS G12C; read-out: pERK EC50
Method in brief: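 4 h cpd, 37 °C; 10-pt 3-fold series, 10 mM DMSO top stock, duplicates. Readout pERK: AlphaLISA SureFire Ultra or In-Cell Western (IR-800CW secondary, DRAQ5 DNA stain). IC50, 4-PL fit vs log conc.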

KRAS G12S, sequence (P01116-2 other isoform, or with tags, fused parts or gaps G12S): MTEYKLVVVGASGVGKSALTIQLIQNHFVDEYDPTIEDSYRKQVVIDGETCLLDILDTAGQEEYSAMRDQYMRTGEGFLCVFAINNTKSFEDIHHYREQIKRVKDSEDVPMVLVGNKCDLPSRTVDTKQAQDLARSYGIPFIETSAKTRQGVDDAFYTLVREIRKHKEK
KRAS G12S, sequence (P62937 whole entry): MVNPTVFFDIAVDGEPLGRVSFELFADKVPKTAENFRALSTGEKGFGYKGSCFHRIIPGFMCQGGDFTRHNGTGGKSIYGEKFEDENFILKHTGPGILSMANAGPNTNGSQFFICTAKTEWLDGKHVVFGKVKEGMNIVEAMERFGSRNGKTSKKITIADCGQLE
NRAS G12C, sequence (P01111 whole entry G12C): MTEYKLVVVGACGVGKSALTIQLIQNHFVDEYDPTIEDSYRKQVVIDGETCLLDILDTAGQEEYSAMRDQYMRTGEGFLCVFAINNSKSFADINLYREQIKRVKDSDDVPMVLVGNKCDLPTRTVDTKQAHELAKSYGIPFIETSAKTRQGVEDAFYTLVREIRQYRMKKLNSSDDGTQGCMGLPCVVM
NRAS G12C, sequence (P62937 whole entry): as the sequence (P62937 whole entry) above
NRAS Q61K, sequence (P01111 whole entry Q61K): as the sequence (P01111 whole entry G12C) above, with C12G, Q61K counted along it
NRAS Q61K, sequence (P62937 whole entry): as the sequence (P62937 whole entry) above

| SMILES | IC50 (NRAS Q61K) [µM] | IC50 (KRAS G12S) | IC50 (NRAS G12C) | EC50 [1] [µM] |
| --- | --- | --- | --- | --- |
| C=CC(=O)N1CC[C@H](C(=O)N(C)[C@H](C(=O)N[C@H]2Cc3cc(O)cc(c3)-c3ccc4c(c3)c(c(-c3cc(C)ccc3[C@H](C)OC)n4CC)CC(C)(C)COC(=O)[C@@H]3CCCN(N3)C2=O)C(C)C)C1 (atropisomer, axis not shown) [Example A167] | 0.1 to 1 | 1 to 10 µM and 0.01 to 0.1 µM | 0.1 to 1 µM and < 0.01 µM | < 5 |
| CC#CC(=O)N1CCC(C(=O)N(C)[C@H](C(=O)N[C@H]2Cc3nc(cs3)-c3ccc4c(c3)c(c(-c3cccnc3[C@H](C)OC)n4CC)CC(C)(C)COC(=O)[C@@H]3CCCN(N3)C2=O)C(C)C)C1 (atropisomer, axis not shown) [Example A168] | 1 to 10 | 1 to 10 µM | 1 to 10 µM | < 5 |
| C=CC(=O)N1CC[C@H](C(=O)N(C)[C@H](C(=O)N[C@H]2Cc3cccc(c3)-c3ccc4c(c3)c(c(-c3cccnc3[C@H](C)OC)n4CC(F)F)CC(C)(C)COC(=O)[C@@H]3CCCN(N3)C2=O)C(C)C)C1 (atropisomer, axis not shown) [Example A335] | 1 to 10 | 1 to 10 µM | 0.1 to 1 µM | < 5 |
| C=CC(=O)N1CC[C@H](C(=O)N(C)[C@H](C(=O)N[C@H]2Cc3cc(cc(C(F)F)c3)-c3ccc4c(c3)c(c(-c3cccnc3[C@H](C)OC)n4CC)CC(C)(C)COC(=O)[C@@H]3CCCN(N3)C2=O)C(C)C)C1 (atropisomer, axis not shown) [Example A341, (3S)-1-acryloyl-N-((2S)-1-(((6^3S,4S)-2^5-(difluoromethyl)-1^1-ethyl-1^2-(2-((S)-1-methoxyethyl)pyridin-3-yl)-10,10-dimethyl-5,7-dioxo-6^1,6^2,6^3,6^4,6^5,6^6-hexahydro-1^1H-8-oxa-1(5,3)-indola-6(1,3)-pyridazina-2(1,3)-benzenacycloundecaphane-4-yl)amino)-3-methyl-1-oxobutan-2-yl)-N-methylpyrrolidine-3-carboxamide] | 1 to 10 | 1 to 10 µM | 0.1 to 1 µM | < 5 |
| C=CC(=O)N1CC(OC[C@H](C(=O)N[C@H]2Cc3cccc(c3)-c3ccc4c(c3)c(c(-c3cccnc3[C@H](C)OC)n4CC(F)(F)F)CC(C)(C)COC(=O)[C@@H]3CCCN(N3)C2=O)C(C)C)C1 (atropisomer, axis not shown) [Example A344] | 1 to 10 | 1 to 10 µM | 0.01 to 0.1 µM | < 5 |
| C=CC(=O)N1CC(OC[C@H](C(=O)N[C@H]2Cc3cc(cc(C(F)F)c3)-c3ccc4c(c3)c(c(-c3cccnc3[C@H](C)OC)n4CC)CC(C)(C)COC(=O)[C@@H]3CCCN(N3)C2=O)C(C)C)C1 (atropisomer, axis not shown) [Example A345] | > 10 | > 10 µM | 1 to 10 µM | < 5 |
| C=CC(=O)N1CC2(COCCN2C(=O)N(C)[C@H](C(=O)N[C@H]2Cc3nc(cs3)-c3ccc4c(c3)c(c(-c3cccnc3[C@H](C)OC)n4CC)CC(C)(C)COC(=O)[C@@H]3CCCN(N3)C2=O)C(C)C)C1 (atropisomer, axis not shown) [Example A352] | 1 to 10 | > 10 µM | 0.01 to 0.1 µM | < 5 |
| C=CC(=O)N1CC[C@@]2(C1)CN(C(=O)N(C)[C@H](C(=O)N[C@H]1Cc3nc(cs3)-c3ccc4c(c3)c(c(-c3cccnc3[C@H](C)OC)n4CC)CC(C)(C)COC(=O)[C@@H]3CCCN(N3)C1=O)C(C)C)CCO2 (atropisomer, axis not shown) [Example A353] | 0.01 to 0.1 | 0.1 to 1 µM | 0.01 to 0.1 µM | < 5 |
| C=CC(=O)NC[C@H]1CCN1C(=O)N(C)[C@H](C(=O)N[C@H]1Cc2nc(cs2)-c2ccc3c(c2)c(c(-c2cccnc2[C@H](C)OC)n3CC)CC(C)(C)COC(=O)[C@@H]2CCCN(N2)C1=O)C(C)C (atropisomer, axis not shown) [Example A356] | 0.1 to 1 | 1 to 10 µM | 0.1 to 1 µM | < 5 |
| C=C(C)C(=O)N1CC(N(C)C(=O)N(C)[C@H](C(=O)N[C@H]2Cc3nc(cs3)-c3ccc4c(c3)c(c(-c3cccnc3[C@H](C)OC)n4CC)CC(C)(C)COC(=O)[C@@H]3CCCN(N3)C2=O)C(C)C)C1 (atropisomer, axis not shown) [Example A360] | 0.1 to 1 | 0.1 to 1 µM | 0.1 to 1 µM | < 5 |
| CCn1c(-c2cccnc2[C@H](C)OC)c2c3cc(ccc31)-c1csc(n1)C[C@H](NC(=O)[C@H](C(C)C)N(C)C(=O)N(C)C1CN(C(=O)/C=C/CN(C)C)C1)C(=O)N1CCC[C@H](N1)C(=O)OCC(C)(C)C2 (atropisomer, axis not shown) [Example A361] | 0.1 to 1 | 0.1 to 1 µM | 0.01 to 0.1 µM | < 5 |
| CCn1c(-c2cccnc2[C@H](C)OC)c2c3cc(ccc31)-c1csc(n1)C[C@H](NC(=O)CN1CC[C@@]3(CCN(C(=O)C#CC(C)(C)N4CCC4)C3)C1)C(=O)N1CCC[C@H](N1)C(=O)OCC(C)(C)C2 (atropisomer, axis not shown) [Example A364] | 1 to 10 | 1 to 10 µM | 0.1 to 1 µM | < 5 |
| CCn1c(-c2cccnc2[C@H](C)OC)c2c3cc(ccc31)-c1csc(n1)C[C@H](NC(=O)CCO[C@@H]1CCN(C(=O)C#CC(C)(C)N3CCC3)C1)C(=O)N1CCC[C@H](N1)C(=O)OCC(C)(C)C2 (atropisomer, axis not shown) [Example A366] | 1 to 10 | 1 to 10 µM | 0.1 to 1 µM | < 5 |
| C=CC(=O)N1CC[C@H](C(=O)N(C)[C@H](C(=O)N[C@H]2Cc3cc(cc(C(F)F)c3)-c3ccc4c(c3)c(c(-c3cccnc3[C@H](C)OC)n4CC(F)(F)F)CC(C)(C)COC(=O)[C@@H]3CCCN(N3)C2=O)C(C)C)C1 (atropisomer, axis not shown) [Example A372] | 1 to 10 | 1 to 10 µM | 0.1 to 1 µM | < 5 |
| CCn1c(-c2cccnc2[C@H](C)OC)c2c3cc(ccc31)N1CCO[C@@H](C[C@H](NC(=O)[C@@H](COC3CN(C(=O)C#CC(C)(C)N(C)C)C3)C(C)C)C(=O)N3CCC[C@H](N3)C(=O)OCC(C)(C)C2)C1 (atropisomer, axis not shown) [Example A377, (2R)-2-(((1-(4-(dimethylamino)-4-methylpent-2-ynoyl)azetidin-3-yl)oxy)methyl)-N-((2^2S,6^3S,4S)-1^1-ethyl-1^2-(2-((S)-1-methoxyethyl)pyridin-3-yl)-10,10-dimethyl-5,7-dioxo-6^1,6^2,6^3,6^4,6^5,6^6-hexahydro-1^1H-8-oxa-2(4,2)-morpholina-1(5,3)-indola-6(1,3)-pyridazinacycloundecaphane-4-yl)-3-methylbutanamide] | > 10 | > 10 µM | < 0.01 µM | < 5 |
| CO[C@@H](C)c1ncccc1-c1c2c3cc(ccc3n1CC(F)(F)F)-c1csc(n1)C[C@H](NC(=O)CCOC1CN(C(=O)C#CC(C)(C)N(C)C)C1)C(=O)N1CCC[C@H](N1)C(=O)OCC(C)(C)C2 (atropisomer, axis not shown) [Example A380] | 1 to 10 | 1 to 10 µM | < 0.01 µM | < 5 |
| C=CC(=O)N1C[C@H](C)N(C(=O)N(C)[C@H](C(=O)N[C@H]2Cc3nc(cs3)-c3ccc4c(c3)c(c(-c3cccnc3[C@H](C)OC)n4CC)CC(C)(C)COC(=O)[C@@H]3CCCN(N3)C2=O)C(C)C)[C@@H](C)C1 (atropisomer, axis not shown) [Example A386] | 0.01 to 0.1 | 0.1 to 1 µM | 0.01 to 0.1 µM | < 5 |
| C=CC(=O)N1C[C@@H](C)N(C(=O)N(C)[C@H](C(=O)N[C@H]2Cc3nc(cs3)-c3ccc4c(c3)c(c(-c3cccnc3[C@H](C)OC)n4CC)CC(C)(C)COC(=O)[C@@H]3CCCN(N3)C2=O)C(C)C)[C@@H](C)C1 (atropisomer, axis not shown) [Example A387] | 0.01 to 0.1 | 0.1 to 1 µM | 0.01 to 0.1 µM | < 5 |
| C=CC(=O)N1CC2(CCN(C(=O)N(C)[C@H](C(=O)N[C@H]3Cc4nc(cs4)-c4ccc5c(c4)c(c(-c4cccnc4[C@H](C)OC)n5CC)CC(C)(C)COC(=O)[C@@H]4CCCN(N4)C3=O)C(C)C)CC2)C1 (atropisomer, axis not shown) [Example A394] | 0.01 to 0.1 | 0.1 to 1 µM | 0.01 to 0.1 µM | < 5 |
